Test results reported in patent US20140308317A1, “Polymeric Compounds And Methods Of Making And Using The Same” (CELLCEUTIX CORPORATION, priority 2012, published 2014).
In brackets after ≈: the same amount, converted by molar mass. Like-named read-outs stand apart in the source and are kept apart here.

Columns and labels:
[1] = tested on: Enterococcus faecalis ATCC 29212; experiment: Minimum Inhibitory Concentration (MIC), modified microbroth dilution; type: cell-based; details: Enterococcus faecalis, read-out: MIC50 E. faecalis
[2] = tested on: Klebsiella pneumoniae ATCC 13883; experiment: as above; type: cell-based; details: Klebsiella pneumoniae, read-out: MIC50 K. Pnuemnoiae
[3] = tested on: Pseudomonas aeruginosa ATCC 10145; experiment: as above; type: cell-based; details: Pseudomonas aeruginosa, read-out: MIC50 P. Aeruginosa
[4] = Cytotoxicity colorimetric (tetrazolium) assay; type: cell-based, human; details: human, HepG2 cells (HB-8065), HepG2 cells; one hour with compound in serum-free media
Description: (§1) Cytotoxicity of the compounds was evaluated in a colorimetric assay using a transformed human liver cell line (HepG2, HB-8065) and an embryonic mouse cell line (NIH/3T3 cells, CRL-1658). This assay measures the bioreduction of a novel tetrazolium compound to a soluble formazan product by viable cells. HepG2 cells were seeded in 96 well plates at 2×10^4 cells/well in MEM medium with 10% fetal bovine serum (FBS) 24 hours prior to use. NIH/3T3 cells were seeded in 96 well plates at 2×10^4 cells/well in DMEM medium with 10% bovine calf serum (BCS) 24 hours prior to use. Cell monolayers were rinsed in serum-free media and incubated for one hour with compounds in serum-free media. After incubation, the media is replaced with serum supplemented media and live cells were measured using the Cell Titer 96 Aqueous […] Assay kit (Promega, Madison, Wis.). EC50 values were determined using a four parameter logistic equation: Y=Bottom+(Top-Bottom)/(1+10̂((LogEC50−X)*HillSlope)).
(§2) Actual results from a representative cytotoxicity assay are shown below in Table 2. Data is expressed as EC50 in μg/mL.

E. Coli ATCC 25922 = experiment: Minimum Inhibitory Concentration (MIC), modified microbroth dilution; type: cell-based; details: Escherichia coli, read-out: MIC50 E. coli
[5] = Cytotoxicity colorimetric (tetrazolium) assay; type: cell-based, mouse; details: mouse, NIH/3T3 cells (CRL-1658), NIH/3T3 cells; one hour with compound in serum-free media
Description: as §1, §2

[6] = tested on: Staphylococcus aureus ATCC 27660; experiment: Minimum Inhibitory Concentration (MIC), modified microbroth dilution; type: cell-based; details: Staphylococcus aureus, read-out: MIC50 S. aureus
[7] = ATCC29212, E. faecalis (29212), overnight incubation (18 hours)
[8] = ATCC13883, K. pneumoniae (13883), overnight incubation (18 hours)
[9] = ATCC10145, P. aeruginosa (10145), overnight incubation (18 hours)
[10] = ATCC25922, E. coli (25922), overnight incubation (18 hours)
[11] = ATCC27660, S. aureus (27660), overnight incubation (18 hours)

SMILES	MIC50 [1, 7]	MIC50 [2, 8]	MIC50 [3, 9]	MIC50 (E. Coli ATCC 25922; [10])	MIC50 [6, 11]	EC50 at 1 h [4]	EC50 at 1 h [5]	MIC50 ([1]; ATCC29212, 18 h)	MIC50 ([2]; ATCC13883, 18 h)	MIC50 ([3]; ATCC10145, 18 h)	MIC50 (E. Coli ATCC 25922; ATCC25922, 18 h)	MIC50 ([6]; ATCC27660, 18 h)
NCCCOc1cc(OCCCN)cc(-c2cccc(-c3cccc(-c4cc(OCCCN)cc(OCCCN)c4)c3)c2)c1 [Compound 144]	6.25 µg/mL (≈ 10.4 µM)	6.25 µg/mL (≈ 10.4 µM)	6.25 µg/mL (≈ 10.4 µM)	3.13 µg/mL (≈ 5.23 µM)	0.195 µg/mL (≈ 0.326 µM)	448 µg/mL (≈ 748 µM)	320 µg/mL (≈ 534 µM)	–	–	–	–	–
N=C(N)NCCc1cccc(-c2cc(-c3cccc(-c4cc(-c5cccc(CCNC(=N)N)c5)on4)c3)no2)c1 [Compound 129]	3.13 µg/mL (≈ 5.85 µM)	12.5 to 25 µg/mL (≈ 23.4 to 46.8 µM)	25 µg/mL (≈ 46.8 µM)	25 µg/mL (≈ 46.8 µM)	0.78 µg/mL (≈ 1.46 µM)	57 µg/mL (≈ 107 µM)	35.8 µg/mL (≈ 66.9 µM)	–	–	–	–	–
N=C(N)NCCc1cccc(-c2coc(-c3cccc(-c4nc(-c5cccc(CCNC(=N)N)c5)co4)c3)n2)c1 [Compound 134]	12.5 µg/mL (≈ 23.4 µM)	50 µg/mL (≈ 93.5 µM)	25 µg/mL (≈ 46.8 µM)	12.5 µg/mL (≈ 23.4 µM)	0.78 µg/mL (≈ 1.46 µM)	70.9 µg/mL (≈ 133 µM)	33.4 µg/mL (≈ 62.5 µM)	–	–	–	–	–
NCCCN1c2ccccc2Sc2ccccc21 [Compound 100]	–	–	–	–	–	18 µg/mL (≈ 70.2 µM)	13 µg/mL (≈ 50.7 µM)	100 µg/mL (≈ 390 µM)	100 µg/mL (≈ 390 µM)	100 µg/mL (≈ 390 µM)	100 µg/mL (≈ 390 µM)	100 µg/mL (≈ 390 µM)
NCCCOc1cc(OCCCN)cc(-c2ccc(C(F)(F)c3ccc(-c4cc(OCCCN)cc(OCCCN)c4)cc3)cc2)c1 [Compound 166]	1.56 µg/mL (≈ 2.4 µM)	6.25 µg/mL (≈ 9.63 µM)	6.25 µg/mL (≈ 9.63 µM)	3.13 µg/mL (≈ 4.82 µM)	0.39 µg/mL (≈ 0.601 µM)	137 µg/mL (≈ 211 µM)	84 µg/mL (≈ 129 µM)	–	–	–	–	–
NCCc1cc(CCN)cc(-c2csc(-c3cccc(-c4nccs4)c3)n2)c1 [Compound 136]	50 µg/mL (≈ 123 µM)	50 µg/mL (≈ 123 µM)	50 µg/mL (≈ 123 µM)	> 50 µg/mL	25 µg/mL (≈ 61.5 µM)	4.12 µg/mL (≈ 10.1 µM)	250 µg/mL (≈ 615 µM)	–	–	–	–	–
N=C(N)NCCc1cc(CCNC(=N)N)cc(-c2cccc(-c3cc(CCNC(=N)N)cc(CCNC(=N)N)c3)c2)c1 [Compound 116]	25 µg/mL (≈ 43.8 µM)	25 µg/mL (≈ 43.8 µM)	25 µg/mL (≈ 43.8 µM)	6.25 µg/mL (≈ 11 µM)	6.25 µg/mL (≈ 11 µM)	974 µg/mL (≈ 1710 µM)	676 µg/mL (≈ 1180 µM)	–	–	–	–	–
N=C(N)NCCCc1cccc(-c2ccc3c4ccc(-c5cccc(CCCNC(=N)N)c5)cc4n(CCCNC(=N)N)c3c2)c1 [Compound 158]	6.25 µg/mL (≈ 10.1 µM)	3.13 µg/mL (≈ 5.07 µM)	25 µg/mL (≈ 40.5 µM)	3.13 µg/mL (≈ 5.07 µM)	1.56 µg/mL (≈ 2.53 µM)	100 µg/mL (≈ 162 µM)	131 µg/mL (≈ 212 µM)	–	–	–	–	–
NCCc1cc(CCN)cc(-c2csc(-c3cccc(-c4nc(-c5cc(CCN)cc(CCN)c5)cs4)c3)n2)c1 [Compound 135]	> 50 µg/mL	> 50 µg/mL	25 µg/mL (≈ 44 µM)	50 µg/mL (≈ 87.9 µM)	6.25 µg/mL (≈ 11 µM)	134 µg/mL (≈ 236 µM)	34.5 µg/mL (≈ 60.6 µM)	–	–	–	–	–

The next lines start with results.

MIC50 [1, 7]	MIC50 [2, 8]	MIC50 [3, 9]	MIC50 (E. Coli ATCC 25922; [10])	MIC50 [6, 11]	SMILES	EC50 at 1 h [4]	EC50 at 1 h [5]	MIC50 ([1]; ATCC29212, 18 h)	MIC50 ([2]; ATCC13883, 18 h)	MIC50 ([3]; ATCC10145, 18 h)	MIC50 (E. Coli ATCC 25922; ATCC25922, 18 h)	MIC50 ([6]; ATCC27660, 18 h)
3.13 µg/mL (≈ 4.18 µM)	6.25 µg/mL (≈ 8.35 µM)	6.25 µg/mL (≈ 8.35 µM)	3.13 µg/mL (≈ 4.18 µM)	1.56 µg/mL (≈ 2.08 µM)	N=C(N)NCC(CNC(=N)N)c1cc(Br)cc(C#Cc2cccc(C#Cc3cc(Br)cc(C(CNC(=N)N)CNC(=N)N)c3)c2)c1 (stereo not shown) [Compound 191]	70.3 µg/mL (≈ 93.9 µM)	17.4 µg/mL (≈ 23.3 µM)	–	–	–	–	–
1.56 µg/mL (≈ 2.52 µM)	6.25 µg/mL (≈ 10.1 µM)	12.5 µg/mL (≈ 20.2 µM)	3.13 µg/mL (≈ 5.06 µM)	0.78 µg/mL (≈ 1.26 µM)	N=C(N)NCCc1ccc(C#Cc2cccc(C#Cc3ccc(CCNC(=N)N)c(CCNC(=N)N)c3)c2)cc1CCNC(=N)N [Compound 195]	163 µg/mL (≈ 263 µM)	95.8 µg/mL (≈ 155 µM)	–	–	–	–	–
6.25 µg/mL (≈ 10.1 µM)	1.56 µg/mL (≈ 2.52 µM)	6.25 µg/mL (≈ 10.1 µM)	1.56 µg/mL (≈ 2.52 µM)	3.9 to 7.8 µg/mL (≈ 6.3 to 12.6 µM)	N=C(N)NCCc1cc(C#Cc2cccc(C#Cc3cc(CCNC(=N)N)cc(CCNC(=N)N)c3)c2)cc(CCNC(=N)N)c1 [Compound 189]	256 µg/mL (≈ 413 µM)	131 µg/mL (≈ 212 µM)	–	–	–	–	–
50 µg/mL (≈ 111 µM)	50 µg/mL (≈ 111 µM)	50 µg/mL (≈ 111 µM)	50 µg/mL (≈ 111 µM)	25 µg/mL (≈ 55.5 µM)	NCCc1cc(C#Cc2ccc(C#Cc3cc(CCN)cc(CCN)c3)cc2)cc(CCN)c1 [Compound 198]	185 µg/mL (≈ 411 µM)	282 µg/mL (≈ 626 µM)	–	–	–	–	–
